Source: the supplement of paper PMC4862054

Key:
Conditions in all cases: incubation time: 72 h
MDA-MB-436 [1] = experiment: normalised viability (% of control), CellTiter-Blue; higher = more viable cells (about 100 = DMSO control)
How it was run: (§1)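 After 72 h on compound-loaded 384-well plates, breast cancer cell lines received 2.5 µl CellTiter-Blue reagent for 2 h at 37 °C. Fluorescence at 560/590 nm was scaled per plate so that vehicle was 100 and a positive kill control was 0. The value stands for normalised viability at a single listed concentration of the series.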

HDQ-P1 [2] = experiment: as above
How it was run: as §1

CAL-148 [3] = experiment: as above
How it was run: as §1

MDA-MB-453 [4] = experiment: as above
How it was run: as §1

BT-549 [5] = experiment: as above
How it was run: as §1

BT-474 [6] = experiment: as above
How it was run: as §1

HCC1143 [7] = experiment: as above
How it was run: as §1

SK-BR-3 = experiment: as above
How it was run: as §1

HCC1599 [8] = experiment: as above
How it was run: as §1

HCC1937 = experiment: normalised response (% of control), CellTox Green; higher = less cell death (100 = DMSO, 0 = benzethonium chloride kill control)
How it was run: (§2)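 Breast cancer cell lines, seeded at 20 µl suspension per well, were incubated for 72 h in 384-well plates containing compound at 5 concentrations. These concentrations rose in 10-fold steps over a 10,000-fold range set for each compound. CellTox Green fluorescence (485/520 nm) was read, then CellTiter-Glo luminescence after 10 min at room temperature, and each plate was normalised to 0.1 % DMSO (100) and a positive kill control (0). Values are normalised signals, each at one concentration.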

MDA-MB-436 [9] = experiment: as above
How it was run: as §2

HDQ-P1 [10] = experiment: as above
How it was run: as §2

CAL-148 [11] = experiment: as above
How it was run: as §2

DU-4475 = experiment: as above
How it was run: as §2

MDA-MB-231 = experiment: as above
How it was run: as §2

MDA-MB-453 [12] = experiment: as above
How it was run: as §2

CAL-120 = experiment: as above
How it was run: as §2

BT-549 [13] = experiment: as above
How it was run: as §2

MDA-MB-468 = experiment: as above
How it was run: as §2

BT-474 [14] = experiment: as above
How it was run: as §2

CAL-51 = experiment: as above
How it was run: as §2

HCC1143 [15] = experiment: as above
How it was run: as §2

MCF-10A = experiment: as above
How it was run: as §2

HCC1599 [16] = experiment: as above
How it was run: as §2

Hs578T = experiment: as above
How it was run: as §2

CAL-85-1 = experiment: as above
How it was run: as §2

MFM-223 = experiment: as above
How it was run: as §2

SMILES: Nc1ccn([C@@H]2O[C@H](CO)[C@@H](O)C2(F)F)c(=O)n1 [Gemcitabine]
- normalised viability (MDA-MB-436 [1]; 1 nM): 98.1%
- normalised viability (MDA-MB-436 [1]; 100 nM): 53.1%
- normalised viability (MDA-MB-436 [1]; 1000 nM): 52.5%
- normalised viability (HDQ-P1 [2]; 0.3 nM): 110%
- normalised viability (HDQ-P1 [2]; 3 nM): 108%
- normalised viability (HDQ-P1 [2]; 10 nM): 100%
- normalised viability (CAL-148 [3]; 0.3 nM): 102%
- normalised viability (CAL-148 [3]; 3 nM): 92.1%
- normalised viability (CAL-148 [3]; 10 nM): 65.2%
- normalised viability (MDA-MB-453 [4]; 0.3 nM): 114%
- normalised viability (MDA-MB-453 [4]; 3 nM): 91.7%
- normalised viability (MDA-MB-453 [4]; 10 nM): 97.9%
- normalised viability (BT-549 [5]; 1 nM): 92.8%
- normalised viability (BT-549 [5]; 100 nM): 69.9%
- normalised viability (BT-549 [5]; 1000 nM): 61%
- normalised viability (BT-474 [6]; 1 nM): 119%
- normalised viability (BT-474 [6]; 100 nM): 103%
- normalised viability (BT-474 [6]; 1000 nM): 101%
- normalised viability (HCC1143 [7]; 1 nM): 101%
- normalised viability (HCC1143 [7]; 100 nM): 49.7%
- normalised viability (HCC1143 [7]; 1000 nM): 45.8%
- normalised viability (SK-BR-3; 1 nM): 108%
- normalised viability (SK-BR-3; 100 nM): 47%
- normalised viability (SK-BR-3; 1000 nM): 40.9%
- normalised viability (HCC1599 [8]; 1 nM): 99.4%
- normalised viability (HCC1599 [8]; 100 nM): 65.9%
- normalised viability (HCC1599 [8]; 1000 nM): 25.4%

SMILES: CCNC(=O)CCC/C=C\C[C@@H]1[C@@H](/C=C/[C@@H](O)CCc2ccccc2)[C@H](O)C[C@@H]1O [Bimatoprost] (550 nM)
- normalised response (HCC1937): 129%
- normalised response (MDA-MB-436 [9]): 67.2%
- normalised response (HDQ-P1 [10]): 66.3%
- normalised response (CAL-148 [11]): 104%
- normalised response (DU-4475): 97.2%
- normalised response (MDA-MB-231): 88.8%
- normalised response (MDA-MB-453 [12]): 99.3%
- normalised response (CAL-120): 97.7%
- normalised response (BT-549 [13]): 73.3%
- normalised response (MDA-MB-468): 69%
- normalised response (BT-474 [14]): 98.5%
- normalised response (CAL-51): 106%
- normalised response (HCC1143 [15]): 105%
- normalised response (MCF-10A): 108%
- normalised response (HCC1599 [16]): 97.1%
- normalised response (Hs578T): 97.8%
- normalised response (CAL-85-1): 93.9%
- normalised response (MFM-223): 103%

SMILES: CNC(=O)c1ccccc1Sc1ccc2c(/C=C/c3ccccn3)n[nH]c2c1 [Axitinib] (1000 nM)
- normalised response (HCC1937): 122%
- normalised response (MDA-MB-436 [9]): 84.9%
- normalised response (HDQ-P1 [10]): 102%
- normalised response (CAL-148 [11]): 108%
- normalised response (DU-4475): 104%
- normalised response (MDA-MB-231): 121%
- normalised response (MDA-MB-453 [12]): 108%
- normalised response (CAL-120): 96.4%
- normalised response (BT-549 [13]): 146%
- normalised response (MDA-MB-468): 129%
- normalised response (BT-474 [14]): 103%
- normalised response (CAL-51): 76%
- normalised response (HCC1143 [15]): 51.8%
- normalised response (MCF-10A): 97.6%
- normalised response (HCC1599 [16]): 118%
- normalised response (Hs578T): 115%
- normalised response (CAL-85-1): 104%
- normalised response (MFM-223): 66.7%

SMILES: C/C(=C\c1csc(C)n1)[C@@H]1C[C@@H]2O[C@]2(C)CCC[C@H](C)[C@H](O)[C@@H](C)C(=O)C(C)(C)[C@@H](O)CC(=O)N1 [Ixabepilone] (1000 nM)
- normalised response (HCC1937): 92.4%
- normalised response (MDA-MB-436 [9]): 103%
- normalised response (HDQ-P1 [10]): 96.2%
- normalised response (CAL-148 [11]): 100%
- normalised response (DU-4475): 101%
- normalised response (MDA-MB-231): 55%
- normalised response (MDA-MB-453 [12]): 101%
- normalised response (CAL-120): 99.3%
- normalised response (BT-549 [13]): 62.7%
- normalised response (MDA-MB-468): 87.1%
- normalised response (BT-474 [14]): 58.1%
- normalised response (CAL-51): 33.8%
- normalised response (HCC1143 [15]): 120%
- normalised response (MCF-10A): 101%
- normalised response (HCC1599 [16]): 104%
- normalised response (Hs578T): 115%
- normalised response (CAL-85-1): 14.6%
- normalised response (MFM-223): 105%

SMILES: CNC(=O)c1ccccc1Sc1ccc2c(/C=C/c3ccccn3)n[nH]c2c1 [Axitinib] (10000 nM)
- normalised response (HCC1937): 91.2%
- normalised response (MDA-MB-436 [9]): 89%
- normalised response (HDQ-P1 [10]): 58.1%
- normalised response (CAL-148 [11]): 22.8%
- normalised response (DU-4475): 108%
- normalised response (MDA-MB-231): 96.8%
- normalised response (MDA-MB-453 [12]): 111%
- normalised response (CAL-120): 92.5%
- normalised response (BT-549 [13]): 90.9%
- normalised response (MDA-MB-468): 156%
- normalised response (BT-474 [14]): 99.4%
- normalised response (CAL-51): 40.2%
- normalised response (HCC1143 [15]): 103%
- normalised response (MCF-10A): 93.8%
- normalised response (HCC1599 [16]): 118%
- normalised response (Hs578T): 119%
- normalised response (CAL-85-1): 75.7%
- normalised response (MFM-223): 97.7%

SMILES: CCNC(=O)c1noc(-c2cc(C(C)C)c(O)cc2O)c1-c1ccc(CN2CCOCC2)cc1 [NVP-AUY922] (1000 nM)
- normalised response (HCC1937): 48.9%
- normalised response (MDA-MB-436 [9]): 107%
- normalised response (HDQ-P1 [10]): 68.8%
- normalised response (CAL-148 [11]): 42.9%
- normalised response (DU-4475): 72.5%
- normalised response (MDA-MB-231): 52.9%
- normalised response (MDA-MB-453 [12]): 89%
- normalised response (CAL-120): 88.4%
- normalised response (BT-549 [13]): 117%
- normalised response (MDA-MB-468): 112%
- normalised response (BT-474 [14]): 55.9%
- normalised response (CAL-51): 48.1%
- normalised response (HCC1143 [15]): 74.2%
- normalised response (MCF-10A): 39.3%
- normalised response (HCC1599 [16]): 97.9%
- normalised response (Hs578T): -31.9%
- normalised response (CAL-85-1): 37.6%
- normalised response (MFM-223): 98.3%

SMILES: Cc1cn(-c2cc(NC(=O)c3ccc(C)c(Nc4nccc(-c5cccnc5)n4)c3)cc(C(F)(F)F)c2)cn1 [Nilotinib] (10000 nM)
- normalised response (HCC1937): 93.1%
- normalised response (MDA-MB-436 [9]): 108%
- normalised response (HDQ-P1 [10]): 108%
- normalised response (CAL-148 [11]): 98.3%
- normalised response (DU-4475): 103%
- normalised response (MDA-MB-231): 84.3%
- normalised response (MDA-MB-453 [12]): 102%
- normalised response (CAL-120): 101%
- normalised response (BT-549 [13]): 80.7%
- normalised response (MDA-MB-468): 117%
- normalised response (BT-474 [14]): 100%
- normalised response (CAL-51): 92.6%
- normalised response (HCC1143 [15]): 104%
- normalised response (MCF-10A): 98.3%
- normalised response (HCC1599 [16]): 105%
- normalised response (Hs578T): 64.7%
- normalised response (CAL-85-1): 88.6%
- normalised response (MFM-223): 104%

SMILES: CC1(C)CCC(c2ccc(Cl)cc2)=C(CN2CCN(c3ccc(C(=O)NS(=O)(=O)c4ccc(N[C@H](CCN5CCOCC5)CSc5ccccc5)c(S(=O)(=O)C(F)(F)F)c4)cc3)CC2)C1 [Navitoclax] (10000 nM)
- normalised response (HCC1937): 69.4%
- normalised response (MDA-MB-436 [9]): 64.8%
- normalised response (HDQ-P1 [10]): -0.28%
- normalised response (CAL-148 [11]): 74.6%
- normalised response (DU-4475): 89.8%
- normalised response (MDA-MB-231): -60.4%
- normalised response (MDA-MB-453 [12]): 86.5%
- normalised response (CAL-120): 13.6%
- normalised response (BT-549 [13]): 97.3%
- normalised response (MDA-MB-468): 24.9%
- normalised response (BT-474 [14]): 70.3%
- normalised response (CAL-51): 31.9%
- normalised response (HCC1143 [15]): 113%
- normalised response (MCF-10A): 60.6%
- normalised response (HCC1599 [16]): 103%
- normalised response (Hs578T): 101%
- normalised response (CAL-85-1): 76.8%
- normalised response (MFM-223): 66.2%
